Reference: patent US10994015B2, “EGFR proteolysis targeting chimeric molecules and associated methods of use” (Arvinas Operations, Inc., priority 2016, dated 2021)

Assays:
EGFR Exon20NPG = EGFR Exon20NPG (Homo sapiens (Human), UniProt P00533, INS770NPG); experiment: TR-FRET assay for ERBB kinases; type: biochemical; conditions: geometric mean if measured more than once
In short: (§1)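 Phosphorylation of fluorescein-labeled poly-GluTyr read as TR-FRET using Tb-pY20 antibody after EDTA stop, with 340 nm excitation. Kinase reaction ran 10 min at room temperature following 10 min compound pre-incubation; substrate mix held 3 mM ATP and 30 µM peptide before addition. Buffer was HEPES pH 7.5.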

[1] = molecular target: EGFR L858R/T790M double mutant (H1975) (Homo sapiens (Human), UniProt P00533, L858R/T790M); experiment: EGFR protein degradation assay (Western blot); type: cell-based; conditions: 72 hours, 300 nM to 10 nM
In short: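 EGFR protein levels were measured by immunoblotting. Lysate protein was quantified by BCA, and 10 μg per sample was separated by SDS/PAGE at 165V for 2 hours and transferred to PVDF. Membranes were blocked in TBS-T with 5% milk for 1 hour, probed overnight at 4° C with EGFR and tubulin antibodies, then secondary antibody for 1 hour, and detected by ECL on a Chemidoc.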

HER3 = HER3 (Homo sapiens (Human), UniProt P21860); experiment: TR-FRET assay for ERBB kinases; type: biochemical; conditions: geometric mean if measured more than once
EGFR L858R/T790M = EGFR L858R/T790M (Homo sapiens (Human), UniProt P00533, L858R/T790M); experiment: TR-FRET assay for ERBB kinases; type: biochemical; conditions: geometric mean if measured more than once
In short: (§2)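 HEPES pH 7.5 buffer with 10 mM MgCl2 and 1 mM DTT; 10 min enzyme–compound pre-incubation. A 10 min room-temperature reaction was initiated by a mix carrying 3 mM ATP, stopped with EDTA, and detected by time-resolved FRET at 340 nm excitation.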

EGFR L858R/T790M/C797S = EGFR L858R/T790M/C797S (Homo sapiens (Human), UniProt P00533, C797S/L858R/T790M); experiment: TR-FRET assay for ERBB kinases; type: biochemical; conditions: geometric mean if measured more than once
Sequence of EGFR L858R/T790M/C797S (P00533 25-1210 T790M/C797S/L858R): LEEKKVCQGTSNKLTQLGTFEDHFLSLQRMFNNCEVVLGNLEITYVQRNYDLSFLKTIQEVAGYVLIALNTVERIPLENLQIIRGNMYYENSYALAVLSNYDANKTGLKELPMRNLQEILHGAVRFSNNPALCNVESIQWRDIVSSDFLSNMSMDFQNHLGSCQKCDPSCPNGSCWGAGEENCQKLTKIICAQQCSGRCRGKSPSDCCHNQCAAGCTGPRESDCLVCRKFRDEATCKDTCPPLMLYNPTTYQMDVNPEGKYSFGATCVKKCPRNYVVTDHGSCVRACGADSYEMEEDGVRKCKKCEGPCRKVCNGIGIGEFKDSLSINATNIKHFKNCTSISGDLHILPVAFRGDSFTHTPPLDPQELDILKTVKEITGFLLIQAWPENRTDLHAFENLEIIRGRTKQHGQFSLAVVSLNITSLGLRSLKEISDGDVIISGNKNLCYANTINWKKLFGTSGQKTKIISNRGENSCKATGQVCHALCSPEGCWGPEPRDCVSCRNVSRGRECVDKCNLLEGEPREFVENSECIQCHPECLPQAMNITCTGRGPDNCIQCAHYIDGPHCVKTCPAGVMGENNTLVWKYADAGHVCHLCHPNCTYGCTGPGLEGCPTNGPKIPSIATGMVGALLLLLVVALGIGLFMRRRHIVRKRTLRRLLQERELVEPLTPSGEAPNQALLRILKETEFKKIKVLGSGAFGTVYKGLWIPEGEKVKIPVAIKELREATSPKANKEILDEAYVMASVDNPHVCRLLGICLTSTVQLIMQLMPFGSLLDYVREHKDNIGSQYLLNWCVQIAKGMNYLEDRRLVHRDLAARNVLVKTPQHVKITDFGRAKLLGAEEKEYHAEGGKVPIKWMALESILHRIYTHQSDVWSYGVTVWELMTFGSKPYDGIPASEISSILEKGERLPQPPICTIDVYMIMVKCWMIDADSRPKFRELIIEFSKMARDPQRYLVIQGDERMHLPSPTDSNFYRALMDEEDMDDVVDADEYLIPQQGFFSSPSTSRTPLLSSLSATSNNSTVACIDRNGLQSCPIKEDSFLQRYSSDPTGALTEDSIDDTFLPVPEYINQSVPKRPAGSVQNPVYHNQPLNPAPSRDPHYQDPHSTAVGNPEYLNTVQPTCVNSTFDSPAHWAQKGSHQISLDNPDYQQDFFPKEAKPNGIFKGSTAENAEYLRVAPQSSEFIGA
In short: as §2

EGFR WT = EGFR WT (Homo sapiens (Human), UniProt P00533); experiment: TR-FRET assay for ERBB kinases; type: biochemical; conditions: geometric mean if measured more than once
Sequence of EGFR WT (P00533 25-1210): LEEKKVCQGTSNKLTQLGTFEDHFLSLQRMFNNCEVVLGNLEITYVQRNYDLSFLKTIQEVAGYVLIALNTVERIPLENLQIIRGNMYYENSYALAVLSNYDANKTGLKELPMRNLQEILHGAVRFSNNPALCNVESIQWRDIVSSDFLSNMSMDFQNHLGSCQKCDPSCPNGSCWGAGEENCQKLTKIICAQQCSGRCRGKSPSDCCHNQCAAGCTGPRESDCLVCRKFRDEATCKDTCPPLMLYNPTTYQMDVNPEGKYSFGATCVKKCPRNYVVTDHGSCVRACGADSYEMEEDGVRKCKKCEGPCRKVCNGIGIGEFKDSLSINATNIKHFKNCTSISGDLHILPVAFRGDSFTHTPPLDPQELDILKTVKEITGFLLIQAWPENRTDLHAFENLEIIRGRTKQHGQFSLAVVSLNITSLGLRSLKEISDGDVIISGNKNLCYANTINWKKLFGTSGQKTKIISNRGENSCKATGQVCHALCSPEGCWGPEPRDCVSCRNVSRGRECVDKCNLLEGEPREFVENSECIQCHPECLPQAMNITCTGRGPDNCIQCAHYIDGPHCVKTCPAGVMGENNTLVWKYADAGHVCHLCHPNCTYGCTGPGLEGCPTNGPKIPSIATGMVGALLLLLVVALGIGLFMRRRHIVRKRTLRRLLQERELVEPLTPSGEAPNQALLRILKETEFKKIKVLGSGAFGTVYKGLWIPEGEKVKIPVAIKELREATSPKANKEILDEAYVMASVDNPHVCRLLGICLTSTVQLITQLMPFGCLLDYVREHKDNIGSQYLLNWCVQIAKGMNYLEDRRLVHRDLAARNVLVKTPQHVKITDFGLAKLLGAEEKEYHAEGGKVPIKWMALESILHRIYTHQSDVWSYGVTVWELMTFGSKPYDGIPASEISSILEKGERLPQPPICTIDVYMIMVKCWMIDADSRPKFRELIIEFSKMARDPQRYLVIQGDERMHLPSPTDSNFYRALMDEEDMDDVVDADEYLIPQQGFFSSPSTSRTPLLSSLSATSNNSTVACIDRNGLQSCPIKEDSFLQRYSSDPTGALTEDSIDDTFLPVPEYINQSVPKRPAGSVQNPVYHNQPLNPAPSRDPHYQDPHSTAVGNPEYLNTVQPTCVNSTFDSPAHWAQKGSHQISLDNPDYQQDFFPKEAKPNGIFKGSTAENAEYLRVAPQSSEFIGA
In short: as §2

EGFR Δ19/746/750 = EGFR Δ19/746/750 (Homo sapiens (Human), UniProt P00533, DEL746-750); experiment: TR-FRET assay for ERBB kinases; type: biochemical; conditions: geometric mean if measured more than once
Sequence of EGFR Δ19/746/750 (P00533 other isoform, or with tags, fused parts or gaps del 1-694/del 746-750 limits assumed): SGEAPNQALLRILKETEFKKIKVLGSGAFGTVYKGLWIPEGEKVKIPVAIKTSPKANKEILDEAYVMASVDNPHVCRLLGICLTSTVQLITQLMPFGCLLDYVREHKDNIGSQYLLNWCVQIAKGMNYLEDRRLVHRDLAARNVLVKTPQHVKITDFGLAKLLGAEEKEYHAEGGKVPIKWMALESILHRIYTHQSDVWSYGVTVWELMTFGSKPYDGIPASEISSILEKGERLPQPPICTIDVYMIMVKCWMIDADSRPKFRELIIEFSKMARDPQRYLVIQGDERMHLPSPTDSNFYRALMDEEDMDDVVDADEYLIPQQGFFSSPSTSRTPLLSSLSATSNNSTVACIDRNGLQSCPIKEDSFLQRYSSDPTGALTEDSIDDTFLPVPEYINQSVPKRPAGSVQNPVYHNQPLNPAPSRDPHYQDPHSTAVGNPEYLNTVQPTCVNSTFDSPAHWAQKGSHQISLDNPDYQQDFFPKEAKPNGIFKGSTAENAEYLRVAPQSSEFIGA
In short: as §1

EGFR Δ19/746/750 T790M = EGFR Δ19/746/750 T790M (Homo sapiens (Human), UniProt P00533, DEL746-750/T790M); experiment: TR-FRET assay for ERBB kinases; type: biochemical; conditions: geometric mean if measured more than once
Sequence of EGFR Δ19/746/750 T790M (P00533 other isoform, or with tags, fused parts or gaps T790M/del 1-694/del 746-750 limits assumed): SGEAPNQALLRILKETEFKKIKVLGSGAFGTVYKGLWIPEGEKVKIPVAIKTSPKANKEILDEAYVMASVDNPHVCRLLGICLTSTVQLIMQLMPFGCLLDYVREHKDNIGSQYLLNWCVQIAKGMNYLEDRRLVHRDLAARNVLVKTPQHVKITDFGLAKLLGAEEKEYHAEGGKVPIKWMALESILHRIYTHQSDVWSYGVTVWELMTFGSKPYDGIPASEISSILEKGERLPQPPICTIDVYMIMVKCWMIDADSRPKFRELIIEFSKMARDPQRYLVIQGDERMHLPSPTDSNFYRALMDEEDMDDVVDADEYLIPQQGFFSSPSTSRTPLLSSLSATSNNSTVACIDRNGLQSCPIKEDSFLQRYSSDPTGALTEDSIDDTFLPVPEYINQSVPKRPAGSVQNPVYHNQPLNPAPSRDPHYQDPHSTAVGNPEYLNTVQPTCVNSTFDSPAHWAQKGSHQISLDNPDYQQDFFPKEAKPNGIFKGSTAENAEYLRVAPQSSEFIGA
In short: as §1

[2] = molecular target: EGFR-wt (MDA-MB-231 or MCF7 or A549 or OVCAR8) (Homo sapiens (Human), UniProt P00533); experiment: EGFR protein degradation assay (Western blot); type: cell-based; conditions: 72 hours, 300 nM to 10 nM
Sequence of EGFR-wt (MDA-MB-231 or MCF7 or A549 or OVCAR8) (P00533 25-1210): as the sequence (P00533 25-1210) above
In short: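 EGFR degradation was assessed by Western blot. Cells expressing the appropriate EGFR were seeded in 6-well plates (300,000 cells per well) and adhered overnight. Media was removed, cells were washed with cold phosphate-buffered saline, scraped into 400 μl Cell Signaling lysis buffer plus protease inhibitor cocktail, and spun once at 10 000 rpm for 10 minutes. After BCA quantification, loading buffer and reducing agent were added. Gels loaded with 10 μg protein ran at 165V for 2 hours, and bands were visualized by chemiluminescence.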

[3] = molecular target: EGFR L858R/T790M/C797S triple mutant (H520*) (Homo sapiens (Human), UniProt P00533, C797S/L858R/T790M); experiment: EGFR protein degradation assay (Western blot); type: cell-based; conditions: 72 hours, 300 nM to 10 nM
In short: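 EGFR loss in the triple-mutant line measured by immunoblot: clarified lysates normalised by BCA, run on 4-12% Bis-Tris gels, blotted to PVDF, probed with HRP anti-rabbit secondary. Before lysis, cells were dosed from 1, 0.3, 0.1, 0.03 and 0.01 mM DMSO stocks (not final concentrations) after overnight culture at 37° C.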

EGFR Exon 20 ASV (HeLa*) = EGFR Exon 20 ASV (HeLa*) (Homo sapiens (Human), UniProt P00533, DUP767-769); experiment: EGFR protein degradation assay (Western blot); type: cell-based; conditions: 72 hours, 300 nM to 10 nM

Sequence of EGFR Exon20NPG (P00533 other isoform, or with tags, fused parts or gaps del 1-694/ins NPG behind 770 limits assumed): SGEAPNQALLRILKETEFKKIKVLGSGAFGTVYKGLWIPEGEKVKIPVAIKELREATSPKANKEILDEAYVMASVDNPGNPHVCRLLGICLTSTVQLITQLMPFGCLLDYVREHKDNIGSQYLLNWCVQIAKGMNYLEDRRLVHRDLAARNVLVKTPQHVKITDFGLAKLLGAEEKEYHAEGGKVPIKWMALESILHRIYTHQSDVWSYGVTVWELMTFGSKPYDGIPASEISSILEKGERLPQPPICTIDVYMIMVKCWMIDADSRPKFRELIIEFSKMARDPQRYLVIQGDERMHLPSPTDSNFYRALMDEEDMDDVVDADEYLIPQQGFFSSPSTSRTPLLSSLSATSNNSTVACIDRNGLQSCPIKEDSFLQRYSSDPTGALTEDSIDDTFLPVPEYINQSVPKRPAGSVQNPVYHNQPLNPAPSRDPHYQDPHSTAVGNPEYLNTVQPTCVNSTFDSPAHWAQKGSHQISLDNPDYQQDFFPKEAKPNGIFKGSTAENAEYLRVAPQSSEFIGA

| SMILES | IC50 (EGFR Exon20NPG) [nM] | EGFR protein remaining, EGFR L858R/T790M double mutant [1] | IC50 (HER3) [nM] | IC50 (EGFR L858R/T790M) [nM] | IC50 (EGFR L858R/T790M/C797S) [nM] | IC50 (EGFR WT) [nM] | IC50 (EGFR Δ19/746/750) [nM] | IC50 (EGFR Δ19/746/750 T790M) [nM] | EGFR protein remaining, EGFR-wt [2] | EGFR protein remaining, EGFR L858R/T790M/C797S triple mutant [3] | EGFR protein remaining, EGFR Exon 20 ASV (EGFR Exon 20 ASV (HeLa*)) |
| --- | --- | --- | --- | --- | --- | --- | --- | --- | --- | --- | --- |
| COC1CCN(c2nccc(Nc3cc4c(cn3)nc(COCCON3CCN(c5ccc6c(c5)C(=O)N(C5CCC(=O)NC5=O)C6=O)CC3)n4C(C)C)n2)CC1 (stereo not shown) [compound 72] | 22000 | C (>80% EGFR protein remaining after 72 hours of incubation with the test compound at a concentration of 300 nM) | > 30000 | > 30000 | 30000 | > 30000 | – | – | – | – | – |
| CC(C)n1nc(N2CC(CN3CCN(CC4CCN(c5ccc6c(c5)C(=O)N(C5CCC(=O)NC5=O)C6=O)CC4)CC3)C2)c2cnc(Nc3ccnc(-c4cnn(S(=O)(=O)C5CC5)c4)n3)cc21 (stereo not shown) [compound 313] | – | – | – | 0.29 | 0.26 | 1.4 | 7.5 | 1.6 | C (>80% EGFR protein remaining after 72 hours of incubation with the test compound at a concentration of 300 nM) | A (≤50% EGFR protein remaining after 72 hours of incubation with the test compound at a concentration between 300 nM and 10 nM) | – |
| Cc1ncsc1-c1ccc([C@H](C)NC(=O)[C@@H]2C[C@@H](O)CN2C(=O)[C@@H](NC(=O)COCCCOc2ccc(N3CCN(CCOCc4nc5cnc(Nc6ccnc(-c7cnn(S(=O)(=O)C8CC8)c7)n6)cc5n4C(C)C)CC3)cc2)C(C)(C)C)cc1 [compound 306] | – | – | – | 53 | 16 | 13000 | 380 | 21 | – | A (≤50% EGFR protein remaining after 72 hours of incubation with the test compound at a concentration between 300 nM and 10 nM) | – |
| Cc1ncsc1-c1ccc([C@H](C)NC(=O)[C@@H]2C[C@@H](O)CN2C(=O)[C@@H](NC(=O)COCCOCCCNCC2CN(c3nn(C(C)C)c4cc(Nc5ccnc(-c6cnn(S(=O)(=O)C7CC7)c6)n5)ncc34)C2)C(C)(C)C)cc1 [compound 308] | – | – | – | 0.91 | 0.27 | 120 | 53 | 2.1 | – | B (≤80% and >50% EGFR protein remaining after 72 hours of incubation with the test compound at a concentration between 300 nM and 10 nM) | – |
| CC(C)n1nc(N2CC(CN3CCN(CC4CCN(c5ccc6c(c5)C(=O)N(C5CCC(=O)NC5=O)C6=O)CC4)CC3)C2)c2cnc(Nc3ccnc(-c4cnn(S(=O)(=O)C5CC5)c4)n3)cc21 (stereo not shown) [compound 314] | – | – | – | 98 | 20 | 89 | 10000 | 5200 | – | C (>80% EGFR protein remaining after 72 hours of incubation with the test compound at a concentration of 300 nM) | – |
| CC(C)n1nc(N2CC(CN[C@H]3C[C@H](Oc4ccc5c(c4)C(=O)N(C4CCC(=O)NC4=O)C5=O)C3)C2)c2cnc(Nc3ccnc(-c4cnn(S(=O)(=O)C5CC5)c4)n3)cc21 (stereo partly shown) [compound 319] | – | – | – | 2.3 | 0.8 | 4.2 | 1.3 | 0.3 | – | A (≤50% EGFR protein remaining after 72 hours of incubation with the test compound at a concentration between 300 nM and 10 nM) | – |
| Cc1ncsc1-c1ccc([C@H](C)NC(=O)[C@@H]2C[C@@H](O)CN2C(=O)[C@@H](NC(=O)COCCOCCOCCN2CCN(CCOCC#Cc3cccc4c3C(=O)N(C(C(=O)Nc3nccs3)c3cc(F)ccc3O)C4)CC2)C(C)(C)C)cc1 (stereo partly shown) [compound 310] | – | – | – | 110 | 22 | 140 | 6000 | 8400 | – | B (≤80% and >50% EGFR protein remaining after 72 hours of incubation with the test compound at a concentration between 300 nM and 10 nM) | – |
| Cc1ncsc1-c1ccc([C@H](C)NC(=O)[C@@H]2C[C@@H](O)CN2C(=O)[C@@H](NC(=O)COCCN2CCN(CCOCCOCCOCC#Cc3cccc4c3C(=O)N(C(C(=O)Nc3nccs3)c3cc(F)ccc3O)C4)CC2)C(C)(C)C)cc1 (stereo partly shown) [compound 311] | – | – | – | 65 | 16 | 97 | 9000 | 4600 | – | B (≤80% and >50% EGFR protein remaining after 72 hours of incubation with the test compound at a concentration between 300 nM and 10 nM) | – |
| Cc1ncsc1-c1ccc([C@H](C)NC(=O)[C@@H]2C[C@@H](O)CN2C(=O)[C@@H](NC(=O)CN2CCN(CCOCCOCCOCCOCC#Cc3cccc4c3C(=O)N(C(C(=O)Nc3nccs3)c3cc(F)ccc3O)C4)CC2)C(C)(C)C)cc1 (stereo partly shown) [compound 309] | – | – | – | 120 | 25 | 7.2 | 1900 | 5100 | – | C (>80% EGFR protein remaining after 72 hours of incubation with the test compound at a concentration of 300 nM) | – |
| COC1CCN(c2nccc(Nc3cc4c(cn3)nc(COCCN3CCN(c5ccc(OCCCN6CCN(c7ccc8c(c7)C(=O)N(C7CCC(=O)NC7=O)C8=O)CC6)cc5)CC3)n4C(C)C)n2)CC1 (stereo not shown) [Example 301, 2-(2,6-dioxopiperidin-3-yl)-5-(4-(3-(4-(4-(2-((1-isopropyl-6-((2-(4-methoxypiperidin-1-yl)pyrimidin-4-yl)amino)-1H-imidazo[4,5-c]pyridin-2-yl)methoxy)ethyl)piperazin-1-yl)phenoxy)propyl)piperazin-1-yl)isoindoline-1,3-dione] | – | – | – | 240 | 34 | 2800 | 1600 | 270 | – | C (>80% EGFR protein remaining after 72 hours of incubation with the test compound at a concentration of 300 nM) | – |
| CC(C)n1nc(N2CCN(CC3CCN(c4ccc5c(c4)C(=O)N(C4CCC(=O)NC4=O)C5=O)CC3)CC2)c2cnc(Nc3ccnc(-c4cnn(S(=O)(=O)C5CC5)c4)n3)cc21 (stereo not shown) [compound 312] | – | – | – | 0.67 | 0.35 | 95 | 170 | 4.9 | – | B (≤80% and >50% EGFR protein remaining after 72 hours of incubation with the test compound at a concentration between 300 nM and 10 nM) | – |
| Cc1ncsc1-c1ccc(CNC(=O)[C@@H]2C[C@@H](O)CN2C(=O)[C@H](C(C)C)N2Cc3ccccc3C2=O)c(OCCOCCOCCN2CCN(Cc3ccc(-c4cc5c(NCc6ccccc6Cl)ncnc5[nH]4)cc3)CC2)c1 [Example 108, (2S,4R)—N-(2-(2-(2-(2-(4-(4-(4-((2-Chlorobenzyl)amino)-7H-pyrrolo[2,3-d]pyrimidin-6-yl)benzyl)piperazin-1-yl)ethoxy)ethoxy)ethoxy)-4-(4-methylthiazol-5-yl)benzyl)-4-hydroxy-1-((S)-3-methyl-2-(1-oxoisoindolin-2-yl)butanoyl)pyrrolidine-2-carboxamide] | 980 | – | – | 10000 | 7800 | 770 | – | – | C (>80% EGFR protein remaining after 72 hours of incubation with the test compound at a concentration of 300 nM) | – | C (>80% EGFR protein remaining after 72 hours of incubation with the test compound at a concentration of 300 nM) |
| O=C1CCC(N2C(=O)c3ccc(OCCN4CCN(Cc5ccc(C6Cc7c(NCc8ccccc8Cl)ncnc7N6)cc5)CC4)cc3C2=O)C(=O)N1 (stereo not shown) [compound 101] | 69 | – | – | 3400 | 3600 | 12 | – | – | C (>80% EGFR protein remaining after 72 hours of incubation with the test compound at a concentration of 300 nM) | – | C (>80% EGFR protein remaining after 72 hours of incubation with the test compound at a concentration of 300 nM) |
